The source of these data is patent US9744142B2, “Formulations of volatile anesthetics and methods of use for reducing inflammation” (Board of Regents, The University of Texas Systems, priority 2009, dated 2017).

The nature of the data set: Isoflurane remaining in uncapped vials over time, determined by weighing (volatility). Format: physicochemical. The note with it: uncapped vial. The protocol:
In the Examples that follow, the stability of isoflurane in the described compositions was determined in two ways. First, the compositions were examined for the presence of phase separation at the macroscopic level. Secondly, isoflurane content of the compositions was determined by weighing the remaining isoflurane in the composition when they were left uncapped over time. Briefly, glass vials were filled with 5-10 ml of the composition vehicle and then weighed; one of them received only vehicle (i.e., no isoflurane) and served as control. The other vials received varying amounts of isoflurane. They were left uncapped in the hood. Over time, the vials were weighed to see if the isoflurane stayed in the composition or had evaporated. The amount evaporated over time in the vehicle control was subtracted from that in the isoflurane-containing composition.
The pure form of isoflurane is a volatile anesthetic. In order to assess the volatility of isoflurane, two vials received the indicated amounts of pure form isoflurane. The vials were placed in the chemical fume hood and left uncapped. The vials were weighed at the indicated times to determine the amount of evaporated isoflurane. As it is shown in the table below 0.7893 g isoflurane was evaporated within 3 hours, while 3.4825 g isoflurane took approximately 8 hrs to evaporate completely. These amounts of isoflurane are similar to the amounts of isoflurane that were used to prepare the isoflurane compositions in the Examples that follow.

Regarding `FC(F)OC(Cl)C(F)(F)F` (stereo not shown) [isoflurane], for the setting “pure isoflurane 0.7893 g”, the “time until isoflurane was evaporated” value was no more than 3 h. Also, where the note is “pure isoflurane 3.4825 g”, the “time to evaporate completely” value is “approximately 8 hrs”. Besides, under “pure isoflurane 3.4825 g, 7 h, remaining iso as in the neighbouring columns”, the 7 h is reported as 13. This compound also displayed an 8 h (pure isoflurane 3.4825 g, 8 h, remaining iso as in the neighbouring columns) of 3.
